# Source: patent publication US20250093263A1, “FRET-BASED ASSAYS” (The General Hospital Corporation, priority 2021, published 2025)
# “And” between values parts separate entries of the source, which are not always exact repeats. Identical values can stand only once. Like-named read-outs stand apart in the source and are kept apart here. Marks after values point to notes of the source that are not given here.
# Assays:
# [1] = molecular target: T1, PfcProRS (Plasmodium falciparum, UniProt Q8I5R7); assay: biochemical; assay type: binding
# T1 construct: made in house; host or cells: SoluBL-21 E. coli
# T1 sequence (Q8I5R7 249-746): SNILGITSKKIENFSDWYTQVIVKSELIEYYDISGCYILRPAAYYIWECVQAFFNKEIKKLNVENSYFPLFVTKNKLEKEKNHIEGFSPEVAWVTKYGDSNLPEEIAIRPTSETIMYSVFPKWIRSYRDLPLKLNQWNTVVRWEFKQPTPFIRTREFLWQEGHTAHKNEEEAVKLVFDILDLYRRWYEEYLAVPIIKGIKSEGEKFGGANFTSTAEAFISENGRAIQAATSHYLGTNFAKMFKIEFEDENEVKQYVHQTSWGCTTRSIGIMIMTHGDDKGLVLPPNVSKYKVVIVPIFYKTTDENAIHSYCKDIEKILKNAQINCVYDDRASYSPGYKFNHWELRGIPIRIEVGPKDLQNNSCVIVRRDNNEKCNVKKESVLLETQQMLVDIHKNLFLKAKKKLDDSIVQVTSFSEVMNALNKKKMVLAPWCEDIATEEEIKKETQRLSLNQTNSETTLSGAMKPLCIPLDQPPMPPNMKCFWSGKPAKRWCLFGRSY
# Experimental: (§1) A stock solution containing CoraFluor-1-Halo-labeled HT-PfcProRS or CoraFluor-1-Halo-labeled HT-HsProRS at the concentration specified for each experiment was prepared in assay buffer (50 mM Tris, pH 7.5, 20 mM KCl, 10 mM MgCl2, 0.05% Tween-20, 1 mM dithiothreitol, and 0.5 mg/mL BSA). […] Plates were mixed on an Ika MTS 2/4 Digital Microtiter Shaker at 750 rpm for 2 min, centrifuged at 1,000×g at 25° C. for 1 min. and allowed to equilibrate at room temperature for 2 h before TR-FRET measurements were taken. […] PRISM 9 (GraphPad) was used to perform non-linear regression analysis (one site—specific binding), plot dose-response curves, and calculate KD values.
# (§2) A Multidrop Combi Reagent Dispenser (ThermoFisher Scientific) was used to dispense 20 μL of 2× protein solution into each well. […] Plates were mixed on an Ika MTS 2/4 Digital Microtiter Shaker at 750 rpm for 2 min, centrifuged at 1,000×g at 25° C. for I min, and allowed to equilibrate for 2 h at room temperature before TR-FRET measurements were taken.
# (§3) PRISM 9 (GraphPad) was used to perform non-linear regression analysis (log(inhibitor) vs. response—Variable slope (four parameters)), plot dose-response curves, and calculate iC50 values.
# (§4) Test compounds were dispensed in duplicate, triplicate, or sextuplicate dose-response format using a D300 digital dispenser (Hewlett Packard). […] Plates were mixed on an Ika MTS 2/4 Digital Microtiter Shaker at 750 rpm for 2 min, centrifuged at 1,000×g at 25° C. for 1 min, and allowed to equilibrate for 2 h at room temperature.
# (§5) GraphPad PRISM was used to perform non-linear regression (log(inhibitor) vs. response—Variable slope (four parameters)), plot dose-response curves, and calculate IC50 values.
# (§6) This assay was generally conducted in the same manner as the CoraFluor-1-Halo format with minor differences. […] Each well was supplemented with 1 nM CoraFluor-1-Pfp-labeled anti-His6 antibody before the 2 h incubation.
# (§7) TR-FRET measurements were acquired in kinetic mode (1 read every ˜45 s) for at least 10 min.
# [2] = molecular target: T2, Keap1 (His/GST) (Homo sapiens, UniProt Q14145); assay: biochemical
# T2 sequence (Q14145 whole entry): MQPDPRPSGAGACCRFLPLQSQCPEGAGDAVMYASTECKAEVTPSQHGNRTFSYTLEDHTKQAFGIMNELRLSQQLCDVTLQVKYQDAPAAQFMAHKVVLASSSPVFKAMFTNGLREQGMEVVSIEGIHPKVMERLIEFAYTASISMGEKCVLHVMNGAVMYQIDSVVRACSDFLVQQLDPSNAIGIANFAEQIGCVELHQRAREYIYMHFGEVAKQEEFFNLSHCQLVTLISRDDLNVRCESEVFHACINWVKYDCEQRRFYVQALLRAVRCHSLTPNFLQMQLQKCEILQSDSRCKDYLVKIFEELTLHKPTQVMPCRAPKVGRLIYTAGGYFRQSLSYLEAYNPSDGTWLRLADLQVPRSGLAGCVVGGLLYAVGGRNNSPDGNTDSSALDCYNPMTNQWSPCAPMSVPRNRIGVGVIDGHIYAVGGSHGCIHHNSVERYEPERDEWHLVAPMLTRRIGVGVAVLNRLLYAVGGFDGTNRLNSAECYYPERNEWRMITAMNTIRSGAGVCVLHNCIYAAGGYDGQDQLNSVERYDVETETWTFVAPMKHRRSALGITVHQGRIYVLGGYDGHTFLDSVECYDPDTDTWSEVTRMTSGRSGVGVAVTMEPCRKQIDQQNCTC
# [3] = molecular target: T2, Keap1 (His/GST); assay: Keap1 TR-FRET Assay 3 (CDDO-FITC/Tb-Anti-6xHis); assay type: binding
# [4] = tested on: halofuginone-induced P. falciparum (elevated proline homeostasis); assay: P. falciparum asexual blood stage growth assay, halofuginone-induced parasites; conditions: for EC50: Plasmodium falciparum, DD2, 72 h, read-out: Dd2 (EC50 [nM]) Halofuginone-induced; for percent growth at 10 μM: halofuginone-induced, shown because compound had <50% growth inhibition
# [5] = tested on: P. falciparum Dd2-2D4; assay: P. falciparum asexual blood stage growth assay, wild type; conditions: for EC50: read-out: Dd2 (EC50 [nM]) wt; for percent growth at 10 μM: Dd2 wt, shown because compound had <50% growth inhibition
# [6] = molecular target: T3, HsProRS (Homo sapiens, UniProt P07814); assay: TR-FRET ProRS ligand displacement / saturation binding assay, HsProRS; conditions: for fold less tightly bound to HT-HsProRS relative to HT-PfcProRS: tracer KD ratio
# T3 construct: made in house; host or cells: SoluBL-21 E. coli
# T3 sequence (P07814 996-1512): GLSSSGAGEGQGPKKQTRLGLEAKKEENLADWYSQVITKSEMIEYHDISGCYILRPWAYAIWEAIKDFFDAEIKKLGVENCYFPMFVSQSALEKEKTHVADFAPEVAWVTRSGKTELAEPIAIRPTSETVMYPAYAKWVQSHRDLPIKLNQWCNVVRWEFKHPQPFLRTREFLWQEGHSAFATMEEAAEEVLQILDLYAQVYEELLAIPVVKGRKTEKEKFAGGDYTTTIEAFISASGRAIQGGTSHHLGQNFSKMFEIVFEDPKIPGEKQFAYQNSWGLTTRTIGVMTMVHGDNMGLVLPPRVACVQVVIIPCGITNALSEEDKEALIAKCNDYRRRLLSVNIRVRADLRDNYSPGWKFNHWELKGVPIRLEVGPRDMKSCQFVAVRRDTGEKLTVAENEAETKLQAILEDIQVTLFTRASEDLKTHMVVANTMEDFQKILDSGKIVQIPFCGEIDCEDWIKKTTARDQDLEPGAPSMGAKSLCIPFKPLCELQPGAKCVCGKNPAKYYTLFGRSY
# Experimental: as §1, §2, §3, §4, §5, §6, §7
# [7] = molecular target: T4, BRD4 in MDA-MB-231 cells (Homo sapiens, UniProt O60885); assay: TR-FRET BRD4 quantification after degrader treatment, MDA-MB-231 cells; assay type: cell-based; conditions: for rescue of CS-JQ1-mediated BRD4 degradation: 250 nM CS-JQ1, 1 μM rescue compound or 10 μM JQ1; for rescue of dBET6-induced BRD4 degradation: 250 nM dBET6, 1 μM rescue compound or 10 μM JQ1, 5 h
# T4 construct: TR-FRET-based quantification of BRD4 levels in unmodified cell lines after degrader treatment; endogenous in cells; host or cells: MDA-MB-231
# Experimental: Cells were incubated for 5 h at 37° C. and 5% CO2 then media was replaced with pre-warmed cell culture medium (1 mL/well) and residual test compound was washed out for 1 h at 37° C. and 5% CO2. After, media was aspirated and cells were washed with PBS (2 mL/well), followed by the addition of ice-cold lysis buffer (200 μL/well). The plate was shaken at 200 rpm on an orbital shaker (IKA KS 260 basic) for 10 min, then lysate was transferred to 1.5 mL Eppendorf tubes and further incubated with slow, end-over-end mixing for 10 min at 4° C. […] TR-FRET ratios were background-subtracted from wells containing lysis buffer, 0.5 mg/mL BSA, and detection mix, then normalized to total protein concentration. The average TR-FRET intensity was normalized to DMSO for each biological replicate before being analyzed in Prism 9.
# Cells were incubated for 5 h at 37° C. and 5% CO2 then media was replaced with pre-warmed cell culture medium (150 μL/well) and residual test compound was washed out for 1 h at 37° C. and 5% CO2. After, media was aspirated and cells were washed with PBS (200 μL/well), followed by the addition of ice-cold lysis buffer (60 L/well). […] Optionally, after TR-FRET measurements, 5 μL/well of CellTiter-Glo 2.0 reagent (Promega G9241) was added to the wells of the 384-well plate and allowed to equilibrate for 10 minutes before luminescence intensity was recorded on a Tecan SPARK plate reader (luminescence module, no attenuation, 250 ms integration time, output Counts/s). TR-FRET ratios were background-subtracted from wells containing lysis buffer, 0.5 mg/mL BSA, and detection mix.
# [8] = molecular target: T5, BRD4 in MCF7 cells (Homo sapiens, UniProt O60885); assay: TR-FRET BRD4 quantification after degrader treatment, MCF7 cells; assay type: cell-based; conditions: for rescue of CS-JQ1-mediated BRD4 degradation: 250 nM CS-JQ1, 1 μM rescue compound or 10 μM JQ1; for rescue of dBET6-induced BRD4 degradation: 250 nM dBET6, 1 μM rescue compound or 10 μM JQ1, 5 h
# T5 construct: TR-FRET-based quantification of BRD4 levels in unmodified cell lines after degrader treatment; endogenous in cells; host or cells: MCF7
# Experimental: Cells were incubated for 5 h at 37° C. and 5% CO2 then media was replaced with pre-warmed cell culture medium (1 mL/well) and residual test compound was washed out for 1 h at 37° C. and 5% CO2. After, media was aspirated and cells were washed with PBS (2 mL/well), followed by the addition of ice-cold lysis buffer (200 μL/well). The plate was shaken at 200 rpm on an orbital shaker (IKA KS 260 basic) for 10 min, then lysate was transferred to 1.5 mL Eppendorf tubes and further incubated with slow, end-over-end mixing for 10 min at 4° C. […] TR-FRET ratios were background-subtracted from wells containing lysis buffer, 0.5 mg/mL BSA, and detection mix, then normalized to total protein concentration. The average TR-FRET intensity was normalized to DMSO for each biological replicate before being analyzed in Prism 9. […] Cell treatment, lysate preparation and TR-FRET analysis was performed as described above.
# [9] = dose-titration of ATP and proline against tracer MAT379, read-out: PfcProRS KD of substrates
# [10] = Plasmodium falciparum, DD2, 72 h
# [11] = PfcProRS (KD [nM]) +proline, 100 μM proline
# [12] = PfcProRS (KD [nM]) −, absence of substrates
# [13] = absence of substrates, read-out: HsProRS (KD [nM]) −
# [14] = read-out: HsProRS (KD [nM]) +proline, 100 μM proline
# [15] = dose-titration of tracer on HT-HsProRS, read-out: HsProRS KD of tracers
# [16] = substrate condition not given, read-out: HsProRS KD
# [17] = PfcProRS KD, substrate condition not given
smiles,measurement,setting,value
Nc1ncnc2c1ncn2[C@@H]1O[C@H](COP(=O)(O)OP(=O)(O)OP(=O)(O)O)[C@@H](O)[C@H]1O [ATP],Kd,[1]; [9],892000 nM
"CC1(C)CC[C@]2(C(=O)O)CC[C@]3(C)[C@H](C(=O)C=C4[C@@]5(C)C=C(C#N)C(=O)C(C)(C)[C@@H]5CC[C@]43C)[C@@H]2C1 [CDDO, (4aS,6aR,6bS,8aR,12aS,14aR,14bS)-11-cyano-2,2,6a,6b,9,9,12a-heptamethyl-10,14.dioxo-1,3,4,5,6,6a,6b,7,8,8a,9,10,12a,14,14a,14b-hexadecahydropicene-4a(2H)-carboxylic acid]",IC50,[2],224000 nM
same,IC50,[3],4 nM
"CC(C)(C)OC(=O)NC1CCN(C(=O)Nc2nccnc2C(=O)NC2Cc3ccccc3C2)CC1 [Compound 7, tert-butyl (1-((3-((2,3-dihydro-1H-inden-2-yl)carbamoyl)pyrazin-2-yl)carbamoyl)piperidin-4-yl)carbamate]",EC50,[4],2170 nM
same,EC50,[5]; [10],90.6 nM
same,Kd,[1]; [11],13.2 nM
same,Kd,[1]; [12],13.1 nM
"CC(C)(C)OC(=O)N1CCC[C@H]1C(=O)NC1CCN(C(=O)Nc2nccnc2C(=O)NC2Cc3ccccc3C2)CC1 [Compound 31, tert-butyl (S)-2-((1-((3-((2,3-dihydro-1H-inden-2-yl)carbamoyl)pyrazin-2-yl)carbamoyl)piperidin-4-yl)carbamoyl)pyrrolidine-1-carboxylate]",percent growth at 10 μM,[4],98%†
same,Kd,[6],> 5000 nM
same,percent growth at 10 μM,[5],102%†
same,Kd,[1]; [11],1990 nM
same,Kd,[1]; [12],2300 nM
"CC(C)(C)OC(=O)N1CCC[C@H]1C(=O)NCC1CCN(C(=O)Nc2nccnc2C(=O)NC2Cc3ccccc3C2)CC1 [Compound 32, tert-butyl (S)-2-(((1-((3-((2,3-dihydro-1H-inden-2-yl)Carbamoyl)pyrazin-2-yl)carbamoyl)piperidin-4-yl)methyl)carbamoyl)pyrrolidine-1-carboxylate]",EC50,[4],1530 nM
same,Kd,[6]; [13],72.1 nM
same,Kd,[6]; [14],270 nM
same,EC50,[5]; [10],63.2 nM
same,Kd,[1]; [11],5.35 nM
same,Kd,[1]; [12],6.67 nM
CC[C@H](C)[C@H](N)C(=O)NS(=O)(=O)NC[C@H]1O[C@@H](n2cnc3c(N)ncnc32)[C@H](O)[C@@H]1O [IleSNA],IC50,"[5]; Plasmodium falciparum, DD2, read-out: ABS IC50",1.19 nM
"O=C(NC1Cc2ccccc2C1)c1nccnc1NC(=O)N1CCC(NC(=O)[C@@H]2CCCN2)CC1 [MAT334, (S)-N-(2,3-dihydro-1H-inden-2-yl)-3-(4-(pyrrolidine-2-carboxamido)piperidine-1-carboxamido)pyrazine-2-carboxamide]",percent growth at 10 μM,[4],59%†
same,Kd,[6]; [14],2130 nM
same,percent growth at 10 μM,[5],76%†
same,Kd,[1]; [11],660 nM
same,Kd,[1]; [12],1380 nM
"O=C(NC1Cc2ccccc2C1)c1nccnc1NC(=O)N1CCC(CNC(=O)[C@@H]2CCCN2)CC1 [MAT345, (S)-N-(2,3-dihydro-1H-inden-2-y)-3-(4-((pyrrolidine-2-carboxamido)methyl)piperidine-1-carboxamido)pyrazine-2-carboxamide]",EC50,[4],7210 nM
same,Kd,[6]; [13],140 nM
same,Kd,[6]; [14],282 nM
same,EC50,[5]; [10],249 nM
same,Kd,[1]; [11],35.9 nM
same,Kd,[1]; [12],39.8 nM
O=C(CCCCCNC(=S)Nc1ccc(-c2c3ccc(=O)cc-3oc3cc(O)ccc23)c(C(=O)O)c1)NC1CCN(C(=O)Nc2nccnc2C(=O)NC2Cc3ccccc3C2)CC1 [MAT379],Kd,[6]; [15],1700 nM
same,fold less tightly bound to HT-HsProRS relative to HT-PfcProRS,[6],17 fold and > 15 fold
same,koff,"[1]; 10-fold dilution of 100 nM HT-PfcProRS and 560 nM MAT379, read-out: first-order dissociation rate constant (koff)",< 0.00267 s⁻¹
same,Kd,"[1]; absence of substrates, read-out: PfcProRS (KD [nM]) −",100 nM
O=C(CCCCCNC(=S)Nc1ccc(-c2c3ccc(=O)cc-3oc3cc(O)ccc23)c(C(=O)O)c1)NCCCCCC(=O)NC1CCN(C(=O)Nc2nccnc2C(=O)NC2Cc3ccccc3C2)CC1 [MAT422],Kd,[6]; [15],> 4000 nM
same,Kd,"[1]; KD, PfcProRS of alternative tracer, tracer binding, conditions not stated",1280 nM
"O=C(CCCCCNC(=S)Nc1ccc(C(=O)O)c(-c2c3ccc(=O)cc-3oc3cc(O)ccc23)c1)NCC1CCN(C(=O)Nc2nccnc2C(=O)NC2Cc3ccccc3C2)CC1 [MAT425, 4-(3-(6-(((1-((3-((2,3-dihydro-1H-inden-2-yl)carbamoyl)pyrazin-2-yl)carbamoyl)piperidin-4-yl)methyl)amino)-6-oxohexyl)thioureido)-2-(6-hydroxy-3-oxo-3H-xanthen-9-yl)benzoic acid]",Kd,[6]; [15],> 10000 nM
same,fold less tightly bound to HT-HsProRS relative to HT-PfcProRS,[6],> 50 fold
same,Kd,[1]; [12],199 nM
"NCCOCCOCCCCCCN(C[C@H]1O[C@@H](n2cnc3c(N)ncnc32)[C@H](O)[C@@H]1O)S(=O)(=O)NC(=O)[C@@H]1CCCN1 [MAT556, (S)-N-(N-(((2R,3S,4R,5R)-5-(6-amino-9H-purin-9-yl)-3,4-dihydroxytetrahydrofuran-2-yl)methyl)-N-(6-(2-(2-aminoethoxy)ethoxy)hexyl)sulfamoyl)pyrrolidine-2-carboxamide]",Kd,[6]; [16],33.7 nM
same,Kd,[1]; [17],195 nM
NS(=O)(=O)OC[C@@H]1C[C@@H](n2ccc3c(N[C@H]4CCc5ccccc54)ncnc32)C[C@@H]1O [MLN4924],rescue of CS-JQ1-mediated BRD4 degradation,[7],substantially rescued
same,rescue of dBET6-induced BRD4 degradation,[7],attenuated
same,rescue of CS-JQ1-mediated BRD4 degradation,[8],substantially rescued
same,rescue of dBET6-induced BRD4 degradation,[8],attenuated
NS(=O)(=O)OC[C@H]1C[C@@H](Nc2ccnc3cc(-c4cccc(SC(F)(F)F)c4)nn23)[C@H](O)[C@@H]1O [MLN7243],rescue of CS-JQ1-mediated BRD4 degradation,[7],substantially rescued
same,rescue of dBET6-induced BRD4 degradation,[7],attenuated
same,rescue of CS-JQ1-mediated BRD4 degradation,[8],substantially rescued
same,rescue of dBET6-induced BRD4 degradation,[8],attenuated
"COC1=CC(=O)C(O)=C/C1=C\C=C\c1ccccc1 [OBT, obtusaquinone]",IC50,[2],24600 nM
same,IC50,[3],3390 nM
"Nc1ncnc2c1ncn2[C@@H]1O[C@H](COS(=O)(=O)NC(=O)[C@@H]2CCCN2)[C@@H](O)[C@H]1O [ProSA, prolyl-sulfamoyl adenosine, reference compound]",EC50,"[5]; wild-type Dd2-2D4, 72 h growth",151 nM
"Nc1ncnc2c1ncn2[C@@H]1O[C@H](CNS(=O)(=O)NC(=O)[C@@H]2CCCN2)[C@@H](O)[C@H]1O [ProSNA, (S)-N-(N-(((2R,3S,4R,5R)-5-(6-amino-9H-purin-9-yl)-3,4-dihydroxytetrahydrofuran-2-yl)methyl)sulfamoyl)pyrrolidine-2-carboxamide]",Kd,[6]; [16],< 1 nM
same,EC50,[5]; [10],172 nM
same,Kd,[1]; [17],< 1 nM
CC(C)C[C@H](NC(=O)[C@H](Cc1ccccc1)NC(=O)c1cnccn1)B(O)O [bortezomib],rescue of CS-JQ1-mediated BRD4 degradation,[7],substantially rescued
same,rescue of dBET6-induced BRD4 degradation,[7],attenuated
same,rescue of CS-JQ1-mediated BRD4 degradation,[8],substantially rescued
same,rescue of dBET6-induced BRD4 degradation,[8],attenuated
"O=C(CC1NCCCC1O)Cn1cnc2cc(Br)c(Cl)cc2c1=O (centres unmarked) [halofuginone, reference compound]",fold increased affinity in the presence of ATP,[1]; 500 μM ATP vs 0 μM ATP,"> 6,000 fold"
O=C(O)[C@@H]1CCCN1 [proline],Kd,"[6]; read-out: HsProRS KD of proline, competition with MAT379",67100 nM
same,Kd,[1]; [9],457000 nM
